Patent US20250381110A1, “SKIN CARE COMPOSITION AND METHOD OF USING THE SAME” (THE PROCTER & GAMBLE COMPANY, priority 2024, published 2025)

Columns and labels:
[1] = test system: human dermal fibroblasts (HDFs); assay: Seahorse analysis, ATP production normalized to MitoTracker density; type: cell-based; details: HDFs from aged donors; 30 μM, 7 h
Protocol: The Seahorse XF Cell Mito Stress Test Kit (Agilent) was used to measure oxygen consumption rates in adult dermal fibroblasts. One day prior to the assay cells were seeded at either 4000 per well or 3000 per well. Where indicated, fibroblast plates were subjected to 20Gy IR 2 h before assay. STOCKIN ([…]) or vehicle (DMSO) treatments were performed 7 h before Seahorse assays. HDFs were stained with 100 nM Mitotracker Green for mitochondrial density measurement. The Mito Stress Test was performed as per manufacturer's guidelines on a Seahorse XF96 Extracellular Flux analyser using previously optimized conditions. Following assay completion, cells were fixed in 4% PFA for 20 minutes. PFA was then removed, and cells were washed twice with PBS. Following fixation, cells were stained with Hoescht nucleic acid stain (Invitrogen) for 10 min before being washed twice in PBS. Fluorescence was subsequently measured using the PHERAstar FSX plate reader (BMG LABTECH) at 350/460 nm for normalization purposes. Following normalization, OCR measurements were interpreted from data generated from the Agilent Seahorse Wave software version 2.6.3.5. Basal respiration data in unstressed conditions is presented. OCR measurements were further normalised to mitochondrial density to obtain ATP production (pmol/min/mitochondria).

[2] = test system: human dermal fibroblasts (HDFs); assay: Average nuclear size by immunofluorescence microscopy; type: cell-based
Protocol: (§1) Immunofluorescence analyses were performed as described previously (Carroll et al.). In brief, cells were seeded on coverslips in 24-well plates and fixed in 4% formaldehyde in PBS for 10 min at room temperature followed by permeabilization in 0.5% Triton X-100 (Sigma-Aldrich) in PBS for 4 min at room temperature (Ki67 and p21) or in methanol for 4 min at −20° C. (LC3 and p62). Cells were then blocked for 1 h in 5% normal goat serum (Sigma-Aldrich) in PBS at room temperature and incubated with primary antibodies overnight at 4° C. Cells were washed three times and incubated with the appropriate secondary antibodies for 1 h at room temperature (Thermo Fisher Scientific, A31556 and A21235, 1:1000). Cells were washed, and coverslips were mounted on slides with Prolong Gold antifade mountant with DAPI (Invitrogen). Fluorescence images were obtained as described above. The following primary antibodies were used: rabbit anti-Ki67 (Abcam, ab 15580, 1:250), rabbit anti-p21 (CST, 2947, 1:1000), mouse anti-LC3 (NanoTools, 0260-100, 1:200) and rabbit anti-p62 (MBL, PM045, 1:500).

Ki67 = assay: Immunostaining for Ki67 (percentage of Ki67-positive cells); type: cell-based, human; details: HDFs; 30 μM for 5 h prior to IR; 11 days after IR
Protocol: as §1

p21 = assay: Immunostaining for p21 (percentage of p21-positive cells); type: cell-based, human
Protocol: as §1

p62-dependent mitophagy = assay: Luciferase-p62 clearance assay, stated for HDFs; type: cell-based, human; details: 10 μM; HDFs as printed
Protocol: FIGS. 15A-15C show hydroxycinnamic acids (HCAs) tested in mitophagy assays in primary HDFs. […] 80,000 mixed aged Fibroblasts expressing the Su9-Halo-GFP reporter were treated for 48 h with the indicated HCAs. A change in the reporter excitation occurs because the GFP tag is quenched in the lysosome environment, indicating mitophagy.
To identify p62-dependent materials which increase mitophagy, a Luciferase-p62 Assay was established. This method provides an approach to measure the ability of a material to modulate p62-dependent mitophagy by using an inducible firefly luciferase-p62 (Fluc-p62) reporter cell system. In this assay, p62 levels are driven by doxycycline treatment. After levels increased, expression of Fluc-p62 is turned off by removal of doxycycline, materials are then added and assessed for how they affect clearance of Fluc-p62 protein, which is proportionate to cellular mitophagy rates (Kelly et al.). […]
Test materials including bioactive materials were screened in mouse embryonic fibroblasts (MEFs, Harada et al.) expressing the TET-inducible p62-fluc construct as previously described (Brown et al.). […] Subsequently, cells were treated with test materials for 48 hours in normal growth medium and analysed using ONE-Glo™+Tox Luciferase Reporter and Cell Viability Assay (Promega) by following the manufacturer's protocol.

IL-8 = assay: SASP assessment, IL-8 mRNA by qPCR; type: cell-based, human; details: HDFs; 30 μM for 5 h prior to IR; 11 days after IR
Protocol: Quantibody Human Cytokine Arrays for 20 cytokines (RayBiotech; QAH-CYT-1) were performed using conditioned media collected from primary dermal fibroblasts culture. mRNA levels of human IL-6 and IL-8 were measured by quantitative polymerase chain reaction (qPCR. Total RNA was extracted using RNeasy Mini Kit (QIAGEN, 74104). From 500 ng of total RNA, first-strand complementary DNA (cDNA) was produced using SuperScript III reverse transcriptase (Invitrogen, 18080044). Quantitative PCR was performed in a StepOnePlus Real-Time PCR system (Applied Biosystems) using Power SYBR Green PCR Master Mix (Applied Biosystems, 4367659). mRNA levels were determined with the […] and normalised to GAPDH levels.

[3] = HDFs from aged donors, 30 μM, 7 h
[4] = HDFs, treatment 5 h prior to IR

Which results are given for `CC(=O)Oc1ccc(N2C(=O)C3C(Cc4ccccc4)NC4(C(=O)Nc5c4ccc(Cl)c5C)C3C2=O)cc1` (centres unmarked) [STOCKIN-57543]?
mitochondrial function (ATP production per cell normalized to MitoTracker density) [1]: restoring; nuclear size [2, 3]: decreasing a senescence-associated increase in nuclear size; IR-associated increase in nuclear size [2, 4]: mitigating IR-associated increase in nuclear size; IR-associated decrease in cellular proliferation capacity (Ki67) (Ki67): mitigating IR-associated decrease in cellular proliferation capacity; p21 expression (p21; [3]): decreasing elevated p21 expression; IR-associated increased p21 expression (p21; [4]): mitigating IR-associated increased p21 expression; increase p62-dependent mitophagy levels over baseline (p62-dependent mitophagy): 33%; IR-associated increase in IL-8 level (mRNA) (IL-8): mitigating IR-associated increases in levels of the SASP factors IL-6 and IL-8
